Patent publication US12128050B2, “KP372-1-induced DNA damage as a chemotherapeutic approach to treat cancer” (New Mexico Tech University Research Park Corporation, priority 2020, dated 2024)

How the values were obtained:
Assay type in all cases: cell-based
[1] = system: MIA PaCa-2 cells; experiment: KP372-1 + BMN 673 combination survival / synergy (CompuSyn); conditions: Fa=0.9; 0.075 μM KP372-1 + 1 μM BMN 673 in combination
Method: DNA content assay: A modified cell survival assay measuring DNA content over ˜7-day period was utilized. Cells were seeded at 10,000 cells/well in 48-well plates in 0.5 mL of media. The next day, media were aspirated and replaced with 0.5 mL media containing the indicated concentrations of KP372-1 (μM) alone or in combination with 50 μM DIC. The cells were exposed for 2 hours (2 h) and the media were again aspirated and replaced with fresh media (without KP372-1). The cells were then allowed to grow for ˜7 days or until control samples became confluent. Cells were then lysed in 250 μl dI water, then freeze-thawed followed by suspension in 0.5 mL 1× TNE buffer containing Hoechst 33258 fluorescent dye. The DNA content was determined by measuring florescence signal using a Victor X5 plate reader. Fluorescence values of treated samples were normalized to that of control samples and plotted as means±SEM for treated over control (i.e., DMSO) treated (T/C) samples. […]
Synergy calculations: Drug synergy was calculated using CompuSyn 1.0 software (www.combosyn.com). […] Then, cell survival was assessed via DNA content assay similarly to as described above. […] Dose-Reduction Index (DRI) values were calculated using the Chou-Talalay method. Briefly, DRI values are calculated using the following equation: DRI=(Dx)1/(D)1 where (Dx)1 is the dose of the drug alone and (D)1 is the dose of the drug in combination. […]

[2] = system: Capan-2 cells; experiment: DNA content assay (relative survival), Capan-2; conditions: 2 h
Method: (§1) DNA content assay: A modified cell survival assay measuring DNA content over ˜7-day period was utilized. Cells were seeded at 10,000 cells/well in 48-well plates in 0.5 mL of media. […] The cells were exposed for 2 hours (2 h) and the media were again aspirated and replaced with fresh media (without KP372-1). The cells were then allowed to grow for ˜7 days or until control samples became confluent. […] The DNA content was determined by measuring florescence signal using a Victor X5 plate reader. Fluorescence values of treated samples were normalized to that of control samples and plotted as means±SEM for treated over control (i.e., DMSO) treated (T/C) samples. The reported values are the results of the following sample sizes for KP372-1±DIC: MIA PaCa-2 concentration (n=5); Capan-2 concentration (n=3); MIA PaCa-2±siSCR/siNQO1 (n=3); hTERT-HPNE (n=3); PANC-1 (n=3); AsPC-1 (n=4); BxPC-3 (n=3); MIA PaCa-2 time (n=3); Capan-2 time (n=3). The reported values are the results of the following sample sizes for β-lap±DIC: MIA PaCa-2 (n=4) and Capan-2 (n=4).

[3] = system: MIA PaCa-2 cells; experiment: DNA content assay (relative survival), MIA PaCa-2; conditions: 2 h
Method: as §1

SMILES | dose reduction index (DRI) [1] | concentration up to which no appreciable toxicity was induced [2] | concentration up to which no appreciable toxicity was induced [3]
Cn1ncnc1[C@H]1c2n[nH]c(=O)c3cc(F)cc(c23)N[C@@H]1c1ccc(F)cc1 [BMN 673, talazoparib] | 3.99 | – | –
CC1(C)CCC2=C(O1)c1ccccc1C(=O)C2=O [β-lap, β-lapachone] | – | up to 1.0 μM | up to 2.0 μM
